Assay results reported in patent US6340594B1, “Production of desiccation-tolerant gymnosperm embryos” (CellFor, Inc., priority 1991, dated 2002).

What was measured:
Assay type in all cases: cell-based
[1] = tested on: white spruce somatic embryos; experiment: Lipid (TL, TAG) content and fatty acid composition of somatic embryos; conditions: 7.5% PEG, 8 weeks; for Fatty acid composition of TAG (%) 18:2^b: FA col 7/9; for Fatty acid composition of TAG (%) ΣC-20, 22^c: FA col 9/9
Procedure: Experiments were set up to observe the effects of different culture conditions on somatic embryo lipid biosynthesis. […] Sigma, St Louis, USA). […] Somatic embryos were maintained on these media for 4 weeks in the dark prior to lipid analysis. […] The lipid contents of immature somatic embryos from suspension culture were also determined. Investigations were conducted to observe the effects of different ABA concentrations, in the presence of PEG, on lipid biosynthesis. […] Matured somatic embryos were transferred on their filter-paper supports to unsealed petri dishes which were then placed within the 81% r.h. desiccator. Total secondary desiccation treatment time was 2 weeks. […] Results were compared to those of somatic embryos matured under the same conditions but not further desiccated. The whole white spruce seeds, isolated zygotic embryos, somatic embryos from the various treatments, and regenerated plantlets and zygotic seedlings were counted, blotted dry, and fresh weights determined. The samples were then placed in an oven at 80° C. for 24 h and dry weights recorded. Lipids were extracted from fresh tissues by the hexane/isopropane method of Hara and Radin (1978), after first placing the samples in boiling isopropane for 10 min. TAGs were separated from total lipid extracts by thin layer chromatography using […] 60 plates (Mandel Scientific Co., Toronto, Canada). […] TAGs were identified using authentic standards and scraped from the plates using a razor blade. Fatty acid methyl esters ([…] prepared from TAGs and total lipid extracts, as previously described (Pomeroy et al. 1991). […] Each lipid extract sample was divided into 2-3 replicates for analysis, and experiments were repeated three times. Results shown are means of one experiment.

[2] = tested on: white spruce somatic embryos; experiment: Molecular size threshold of solutes for promoting maturation; conditions: 20 μM ABA; for Mature embryos per replicate (± SE): solute 7.5% added to 3% sucrose base, 9 weeks; for recovery of mature embryos: solute at 2.5 and 5% (w/v), 3% sucrose base
Procedure: In order to determine the effective molecular weight and size range of solutes that promote the maturation of immature white spruce somatic embryos, they were matured in half-strength LP maturation medium containing a range of different solutes of differing molecular weight. Five replicates were prepared per treatment, and treatments were repeated twice. […] The treatment time was 9 weeks. […] The somatic embryos remained wet throughout the maturation treatment which led to poorly formed embryos at low frequency. […] For all treatments, only normal looking cotyledonary stage opaque white embryos were scored and used for lipid analyses. Levels of lipid triacylglycerols (TAGs) were analyzed as described later and results provided are means of two replicates.

[3] = tested on: white spruce somatic embryos; experiment: Somatic embryo maturation with PEG-4000 (maturation frequency); conditions: preliminary experiments
Procedure: Maturation of somatic embryos was carried out using methods modified from Attree et al. (1990). Suspension cultured somatic embryos were washed and resuspended (20% w/v) in half-strength PGR-free BM containing 3% sucrose, to remove the previous PGRs, then 0.75 ml aliquots were pipetted onto filter paper supports (Whatman no. 2) on the surface of maturation medium. The supports facilitated subsequent transfers to fresh media. To determine the mean number of somatic embryos plated, 10 μl samples of the 20% suspension were stained with acetocarmine (B.D.H.) and counted (repeated 15 times). The plated somatic embryos were maintained on the maturation medium for 4 weeks in the dark. To test the effect of increased osmoticum, the following concentrations of PEG-4000 (Fluka AG) were included in the maturation medium; 0, 2.5, 5.0, 7.5 and 10% (w/v) (25 replicates per treatment). Maturation frequencies per treatment were calculated as the percent mean number of somatic embryos that matured to normal-looking cotyledonary embryos. Maturation frequency results are shown in FIG. 1 (±confidence limits, P=0.05)
The application of PEG-4000 in the presence of 16 μM ABA for 28 d promoted the maturation of white spruce somatic embryos (FIG. 1). The mean number of immature somatic embryos plated per replicate was 560, and maturation results are based upon a total of 4087 mature embryos recovered. […]

[4] = ABA 12 μM, desiccated (D) 2 weeks 81% r.h.
[5] = ABA 16 μM, desiccated (D) 2 weeks 81% r.h.
[6] = ABA 24 μM, desiccated (D) 2 weeks 81% r.h.
[7] = ABA 32 μM, desiccated (D) 2 weeks 81% r.h.

CC1=CC(=O)CC(C)(C)C1(O)/C=C/C(C)=C\C(=O)O (racemic) [ABA, abscisic acid]
TAG % d wt [1, 4]: 26 % d wt
TAG μg (embryo)^−1 [1, 4]: 186.6 μg (embryo)^−1
TAG/TL % [1, 4]: 85%
TL % d wt [1, 4]: 31 % d wt
TL μg (embryo)^−1 [1, 4]: 220 μg (embryo)^−1
TAG % d wt ([1]; ABA 12 μM, hydrated (H)): 14 % d wt
TAG μg (embryo)^−1 ([1]; ABA 12 μM, hydrated (H)): 116 μg (embryo)^−1
TAG/TL % ([1]; ABA 12 μM, hydrated (H)): 79%
TL % d wt ([1]; ABA 12 μM, hydrated (H)): 18 % d wt
TL μg (embryo)^−1 ([1]; ABA 12 μM, hydrated (H)): 146 μg (embryo)^−1
TAG % d wt [1, 5]: 28 % d wt
TAG μg (embryo)^−1 [1, 5]: 214 μg (embryo)^−1
TAG/TL % [1, 5]: 82%
TL % d wt [1, 5]: 35 % d wt
TL μg (embryo)^−1 [1, 5]: 260 μg (embryo)^−1
TAG % d wt ([1]; ABA 16 μM, hydrated (H)): 17 % d wt
TAG μg (embryo)^−1 ([1]; ABA 16 μM, hydrated (H)): 143 μg (embryo)^−1
TAG/TL % ([1]; ABA 16 μM, hydrated (H)): 80%
TL % d wt ([1]; ABA 16 μM, hydrated (H)): 22 % d wt
TL μg (embryo)^−1 ([1]; ABA 16 μM, hydrated (H)): 179 μg (embryo)^−1
TAG % d wt [1, 6]: 30 % d wt
TAG μg (embryo)^−1 [1, 6]: 186.2 μg (embryo)^−1
TAG/TL % [1, 6]: 80%
TL % d wt [1, 6]: 37 % d wt
TL μg (embryo)^−1 [1, 6]: 232.5 μg (embryo)^−1
TAG % d wt ([1]; ABA 24 μM, hydrated (H)): 20 % d wt
TAG μg (embryo)^−1 ([1]; ABA 24 μM, hydrated (H)): 131 μg (embryo)^−1
TAG/TL % ([1]; ABA 24 μM, hydrated (H)): 77%
TL % d wt ([1]; ABA 24 μM, hydrated (H)): 26 % d wt
TL μg (embryo)^−1 ([1]; ABA 24 μM, hydrated (H)): 170 μg (embryo)^−1
TAG % d wt [1, 7]: 20 % d wt
TAG μg (embryo)^−1 [1, 7]: 170 μg (embryo)^−1
TAG/TL % [1, 7]: 64%
TL % d wt [1, 7]: 31 % d wt
TL μg (embryo)^−1 [1, 7]: 264 μg (embryo)^−1
TAG % d wt ([1]; ABA 32 μM, hydrated (H)): 17 % d wt
TAG μg (embryo)^−1 ([1]; ABA 32 μM, hydrated (H)): 130 μg (embryo)^−1
TAG/TL % ([1]; ABA 32 μM, hydrated (H)): 67%
TL % d wt ([1]; ABA 32 μM, hydrated (H)): 26 % d wt
TL μg (embryo)^−1 ([1]; ABA 32 μM, hydrated (H)): 193 μg (embryo)^−1
Fatty acid composition of TAG (%) 18:2^b ([1]; ABA 12 μM, D (81% r.h.)): 15.4%
Fatty acid composition of TAG (%) 18:2^b ([1]; ABA 12 μM, H): 13.2%
Fatty acid composition of TAG (%) 18:2^b ([1]; ABA 16 μM, D (81% r.h.)): 15.4%
Fatty acid composition of TAG (%) 18:2^b ([1]; ABA 16 μM, H): 13.5%
Fatty acid composition of TAG (%) 18:2^b ([1]; ABA 24 μM, D (81% r.h.)): 15%
Fatty acid composition of TAG (%) 18:2^b ([1]; ABA 24 μM, H): 14.7%
Fatty acid composition of TAG (%) 18:2^b ([1]; ABA 32 μM, D (81% r.h.)): 14.9%
Fatty acid composition of TAG (%) 18:2^b ([1]; ABA 32 μM, H): 14.6%
Fatty acid composition of TAG (%) ΣC-20, 22^c ([1]; ABA 12 μM, D (81% r.h.)): 1.4%
Fatty acid composition of TAG (%) ΣC-20, 22^c ([1]; ABA 12 μM, H): 1.4%
Fatty acid composition of TAG (%) ΣC-20, 22^c ([1]; ABA 16 μM, D (81% r.h.)): 1.5%
Fatty acid composition of TAG (%) ΣC-20, 22^c ([1]; ABA 16 μM, H): 1%
Fatty acid composition of TAG (%) ΣC-20, 22^c ([1]; ABA 24 μM, D (81% r.h.)): 1.5%
Fatty acid composition of TAG (%) ΣC-20, 22^c ([1]; ABA 24 μM, H): 1.2%
Fatty acid composition of TAG (%) ΣC-20, 22^c ([1]; ABA 32 μM, D (81% r.h.)): 2.5%
Fatty acid composition of TAG (%) ΣC-20, 22^c ([1]; ABA 32 μM, H): 1.6%

OC[C@@H](O)[C@@H](O)[C@H](O)[C@H](O)CO [Mannitol, mannitol]
Mature embryos per replicate (± SE) [2]: 0
recovery of mature embryos [2]: did not result in recovery of any mature embryos

OC[C@H]1O[C@@](CO)(O[C@H]2O[C@H](CO)[C@@H](O)[C@H](O)[C@H]2O)[C@@H](O)[C@@H]1O [Sucrose, sucrose]
Mature embryos per replicate (± SE) [2]: 0
recovery of mature embryos [2]: did not result in recovery of any mature embryos
maturation frequencies, visual comparison ([3]; 6% sucrose): lower maturation frequencies
growth, visual comparison ([3]; 9% sucrose): no growth
